Measurements taken from paper PMC4774911, “Biochemical Screening of Five Protein Kinases from Plasmodium falciparum against 14,000 Cell-Active Compounds” (PLoS ONE, 2016).
Where “and” joins values, the source holds several entries; their conditions need not be identical. Identical values can stand only once. Like-named read-outs stand apart in the source and are kept apart here.

How the values were obtained:
TNIK = TNIK (Homo sapiens, UniProt Q9UKE5); assay: biochemical; design: endogenous in cells; host or cells: K562 cell extract; species or system K562 (extract); replicate k of n = 2 (each experiment ID is one independent experiment; two experiment IDs per compound); conditions: read-out: KDapp
GSK3B = GSK3B (Homo sapiens, UniProt P49841); assay: biochemical; design: endogenous in cells; host or cells: K562 cell extract; species or system K562 (extract); replicate k of n = 2 (each experiment ID is one independent experiment; two experiment IDs per compound); conditions: read-out: KDapp
CSNK1A1 = CSNK1A1 (Homo sapiens, UniProt P48729); assay: biochemical; design: endogenous in cells; host or cells: K562 cell extract; species or system K562 (extract); replicate k of n = 2 (each experiment ID is one independent experiment; two experiment IDs per compound); conditions: read-out: KDapp
PRKD3 = target: T1, PRKD3 (Homo sapiens, UniProt O94806); assay: biochemical; design: endogenous in cells; host or cells: K562 cell extract; species or system K562 (extract); replicate k of n = 2 (each experiment ID is one independent experiment; two experiment IDs per compound); conditions: read-out: KDapp
T1 sequence (O94806 1-890): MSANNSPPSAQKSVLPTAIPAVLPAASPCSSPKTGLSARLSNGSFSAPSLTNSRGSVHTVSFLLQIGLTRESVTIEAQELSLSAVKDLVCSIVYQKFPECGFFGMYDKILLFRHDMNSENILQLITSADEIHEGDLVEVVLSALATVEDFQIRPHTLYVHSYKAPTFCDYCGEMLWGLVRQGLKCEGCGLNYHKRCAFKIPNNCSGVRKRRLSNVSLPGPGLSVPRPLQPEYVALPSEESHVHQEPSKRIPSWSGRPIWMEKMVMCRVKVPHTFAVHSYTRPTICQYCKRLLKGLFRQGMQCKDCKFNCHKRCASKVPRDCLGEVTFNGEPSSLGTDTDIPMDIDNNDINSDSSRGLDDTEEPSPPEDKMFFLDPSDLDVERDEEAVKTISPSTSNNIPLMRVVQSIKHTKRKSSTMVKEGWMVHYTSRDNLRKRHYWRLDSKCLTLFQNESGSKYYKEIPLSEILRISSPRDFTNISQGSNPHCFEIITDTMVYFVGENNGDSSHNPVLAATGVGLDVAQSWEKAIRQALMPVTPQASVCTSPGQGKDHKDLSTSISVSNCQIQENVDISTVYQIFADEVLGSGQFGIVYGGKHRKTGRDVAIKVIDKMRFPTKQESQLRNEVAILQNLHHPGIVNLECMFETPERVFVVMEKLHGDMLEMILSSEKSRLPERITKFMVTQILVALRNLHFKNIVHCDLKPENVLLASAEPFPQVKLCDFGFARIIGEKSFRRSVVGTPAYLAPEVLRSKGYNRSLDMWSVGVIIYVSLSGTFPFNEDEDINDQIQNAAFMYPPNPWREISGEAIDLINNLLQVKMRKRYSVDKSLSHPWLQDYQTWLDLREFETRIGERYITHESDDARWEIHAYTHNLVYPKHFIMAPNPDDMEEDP

CIT = CIT (Homo sapiens, UniProt O14578); assay: biochemical; design: endogenous in cells; host or cells: K562 cell extract; species or system K562 (extract); replicate k of n = 2 (each experiment ID is one independent experiment; two experiment IDs per compound); conditions: read-out: KDapp
CDC42BPG = CDC42BPG (Homo sapiens, UniProt Q6DT37); assay: biochemical; design: endogenous in cells; host or cells: K562 cell extract; species or system K562 (extract); replicate k of n = 2 (each experiment ID is one independent experiment; two experiment IDs per compound); conditions: read-out: KDapp
MERTK = target: T2, MERTK (Homo sapiens, UniProt Q12866); assay: biochemical; design: endogenous in cells; host or cells: K562 cell extract; species or system K562 (extract); replicate k of n = 2 (each experiment ID is one independent experiment; two experiment IDs per compound); conditions: read-out: KDapp
T2 sequence (Q12866 1-999): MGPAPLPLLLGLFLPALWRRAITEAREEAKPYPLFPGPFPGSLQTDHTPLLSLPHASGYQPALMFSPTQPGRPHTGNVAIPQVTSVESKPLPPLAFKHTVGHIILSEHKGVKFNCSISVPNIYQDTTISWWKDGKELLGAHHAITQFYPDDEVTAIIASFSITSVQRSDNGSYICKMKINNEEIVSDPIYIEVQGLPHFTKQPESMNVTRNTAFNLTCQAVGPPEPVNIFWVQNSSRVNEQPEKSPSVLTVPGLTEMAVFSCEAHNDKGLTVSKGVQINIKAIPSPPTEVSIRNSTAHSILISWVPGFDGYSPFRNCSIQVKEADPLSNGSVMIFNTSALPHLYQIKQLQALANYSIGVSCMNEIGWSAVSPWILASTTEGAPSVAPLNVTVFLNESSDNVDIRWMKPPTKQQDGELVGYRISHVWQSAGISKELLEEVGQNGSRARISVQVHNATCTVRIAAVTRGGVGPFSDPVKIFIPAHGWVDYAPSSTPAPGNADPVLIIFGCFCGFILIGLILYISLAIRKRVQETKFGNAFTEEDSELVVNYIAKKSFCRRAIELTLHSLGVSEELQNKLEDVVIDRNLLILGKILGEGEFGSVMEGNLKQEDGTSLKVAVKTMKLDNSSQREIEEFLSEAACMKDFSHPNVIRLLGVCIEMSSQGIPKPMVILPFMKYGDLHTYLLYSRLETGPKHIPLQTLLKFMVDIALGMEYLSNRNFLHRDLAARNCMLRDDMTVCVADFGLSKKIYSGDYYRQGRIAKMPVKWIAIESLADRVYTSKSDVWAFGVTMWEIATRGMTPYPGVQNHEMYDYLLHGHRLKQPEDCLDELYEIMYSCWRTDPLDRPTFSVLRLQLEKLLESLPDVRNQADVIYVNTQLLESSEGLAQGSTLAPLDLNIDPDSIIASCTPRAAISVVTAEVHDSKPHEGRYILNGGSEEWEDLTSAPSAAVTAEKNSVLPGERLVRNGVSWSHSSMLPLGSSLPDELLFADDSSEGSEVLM

P. falciparum 3D7 cells = conditions: cited from earlier work
[1] = P. falciparum 3D7, downloaded from ChEMBL ref F.J. Gamo et al., Nature 2010
[2] = 3D7, downloaded from ChEMBL, ref F.J. Gamo et al., Nature 2010

Chain of GSK3B (P49841 whole entry): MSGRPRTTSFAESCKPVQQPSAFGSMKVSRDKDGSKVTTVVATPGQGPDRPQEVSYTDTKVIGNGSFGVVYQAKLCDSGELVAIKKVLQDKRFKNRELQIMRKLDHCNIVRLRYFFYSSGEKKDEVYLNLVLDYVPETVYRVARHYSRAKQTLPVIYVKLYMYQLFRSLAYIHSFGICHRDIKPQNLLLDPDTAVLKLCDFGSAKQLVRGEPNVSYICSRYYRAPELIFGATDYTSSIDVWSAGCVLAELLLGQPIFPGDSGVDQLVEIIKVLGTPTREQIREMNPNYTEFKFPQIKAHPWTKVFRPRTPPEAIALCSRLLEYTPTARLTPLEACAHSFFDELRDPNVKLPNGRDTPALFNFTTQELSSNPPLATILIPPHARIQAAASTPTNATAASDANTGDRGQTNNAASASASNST
Chain of CSNK1A1 (P48729 whole entry): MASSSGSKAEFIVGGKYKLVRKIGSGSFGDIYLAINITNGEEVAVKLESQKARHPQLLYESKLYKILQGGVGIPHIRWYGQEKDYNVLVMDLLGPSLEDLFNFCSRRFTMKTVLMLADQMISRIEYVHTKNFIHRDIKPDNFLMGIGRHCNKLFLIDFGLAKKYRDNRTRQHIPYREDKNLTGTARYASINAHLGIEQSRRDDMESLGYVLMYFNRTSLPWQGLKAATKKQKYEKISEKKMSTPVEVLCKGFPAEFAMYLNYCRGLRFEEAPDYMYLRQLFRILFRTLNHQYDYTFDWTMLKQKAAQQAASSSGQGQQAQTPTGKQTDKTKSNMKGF
Chain of TNIK (Q9UKE5 whole entry): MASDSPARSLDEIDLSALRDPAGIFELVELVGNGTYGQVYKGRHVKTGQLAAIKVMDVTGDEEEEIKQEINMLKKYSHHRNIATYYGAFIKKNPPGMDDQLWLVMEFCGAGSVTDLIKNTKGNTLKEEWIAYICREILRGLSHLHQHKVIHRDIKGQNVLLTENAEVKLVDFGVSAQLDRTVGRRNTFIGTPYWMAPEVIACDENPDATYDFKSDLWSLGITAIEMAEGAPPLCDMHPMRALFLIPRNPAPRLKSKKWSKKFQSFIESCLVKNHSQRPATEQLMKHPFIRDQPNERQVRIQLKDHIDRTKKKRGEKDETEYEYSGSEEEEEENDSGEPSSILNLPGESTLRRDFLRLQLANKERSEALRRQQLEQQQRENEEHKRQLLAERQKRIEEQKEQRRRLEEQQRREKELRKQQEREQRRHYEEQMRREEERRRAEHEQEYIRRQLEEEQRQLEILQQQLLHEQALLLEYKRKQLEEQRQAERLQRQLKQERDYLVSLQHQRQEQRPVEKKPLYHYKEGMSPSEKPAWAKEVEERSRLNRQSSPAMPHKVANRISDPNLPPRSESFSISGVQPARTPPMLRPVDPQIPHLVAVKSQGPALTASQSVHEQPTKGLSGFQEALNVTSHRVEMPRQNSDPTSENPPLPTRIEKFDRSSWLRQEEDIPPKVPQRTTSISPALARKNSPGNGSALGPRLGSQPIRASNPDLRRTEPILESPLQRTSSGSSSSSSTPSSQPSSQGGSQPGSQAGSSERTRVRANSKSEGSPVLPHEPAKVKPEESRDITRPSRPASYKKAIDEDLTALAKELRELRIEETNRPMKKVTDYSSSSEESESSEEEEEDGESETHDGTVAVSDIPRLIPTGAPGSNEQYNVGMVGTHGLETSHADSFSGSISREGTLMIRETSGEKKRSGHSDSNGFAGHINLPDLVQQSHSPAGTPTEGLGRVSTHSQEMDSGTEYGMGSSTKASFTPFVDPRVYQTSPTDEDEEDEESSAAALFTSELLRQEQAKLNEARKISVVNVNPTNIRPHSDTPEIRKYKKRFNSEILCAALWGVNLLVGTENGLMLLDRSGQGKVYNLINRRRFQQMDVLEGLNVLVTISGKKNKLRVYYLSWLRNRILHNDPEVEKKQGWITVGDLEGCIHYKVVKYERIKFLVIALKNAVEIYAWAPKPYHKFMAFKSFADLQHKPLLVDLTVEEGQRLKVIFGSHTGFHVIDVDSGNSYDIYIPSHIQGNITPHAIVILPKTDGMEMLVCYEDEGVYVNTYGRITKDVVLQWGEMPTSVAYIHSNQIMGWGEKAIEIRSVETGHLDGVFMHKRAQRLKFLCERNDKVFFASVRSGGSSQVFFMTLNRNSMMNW
Chain of CDC42BPG (Q6DT37 whole entry): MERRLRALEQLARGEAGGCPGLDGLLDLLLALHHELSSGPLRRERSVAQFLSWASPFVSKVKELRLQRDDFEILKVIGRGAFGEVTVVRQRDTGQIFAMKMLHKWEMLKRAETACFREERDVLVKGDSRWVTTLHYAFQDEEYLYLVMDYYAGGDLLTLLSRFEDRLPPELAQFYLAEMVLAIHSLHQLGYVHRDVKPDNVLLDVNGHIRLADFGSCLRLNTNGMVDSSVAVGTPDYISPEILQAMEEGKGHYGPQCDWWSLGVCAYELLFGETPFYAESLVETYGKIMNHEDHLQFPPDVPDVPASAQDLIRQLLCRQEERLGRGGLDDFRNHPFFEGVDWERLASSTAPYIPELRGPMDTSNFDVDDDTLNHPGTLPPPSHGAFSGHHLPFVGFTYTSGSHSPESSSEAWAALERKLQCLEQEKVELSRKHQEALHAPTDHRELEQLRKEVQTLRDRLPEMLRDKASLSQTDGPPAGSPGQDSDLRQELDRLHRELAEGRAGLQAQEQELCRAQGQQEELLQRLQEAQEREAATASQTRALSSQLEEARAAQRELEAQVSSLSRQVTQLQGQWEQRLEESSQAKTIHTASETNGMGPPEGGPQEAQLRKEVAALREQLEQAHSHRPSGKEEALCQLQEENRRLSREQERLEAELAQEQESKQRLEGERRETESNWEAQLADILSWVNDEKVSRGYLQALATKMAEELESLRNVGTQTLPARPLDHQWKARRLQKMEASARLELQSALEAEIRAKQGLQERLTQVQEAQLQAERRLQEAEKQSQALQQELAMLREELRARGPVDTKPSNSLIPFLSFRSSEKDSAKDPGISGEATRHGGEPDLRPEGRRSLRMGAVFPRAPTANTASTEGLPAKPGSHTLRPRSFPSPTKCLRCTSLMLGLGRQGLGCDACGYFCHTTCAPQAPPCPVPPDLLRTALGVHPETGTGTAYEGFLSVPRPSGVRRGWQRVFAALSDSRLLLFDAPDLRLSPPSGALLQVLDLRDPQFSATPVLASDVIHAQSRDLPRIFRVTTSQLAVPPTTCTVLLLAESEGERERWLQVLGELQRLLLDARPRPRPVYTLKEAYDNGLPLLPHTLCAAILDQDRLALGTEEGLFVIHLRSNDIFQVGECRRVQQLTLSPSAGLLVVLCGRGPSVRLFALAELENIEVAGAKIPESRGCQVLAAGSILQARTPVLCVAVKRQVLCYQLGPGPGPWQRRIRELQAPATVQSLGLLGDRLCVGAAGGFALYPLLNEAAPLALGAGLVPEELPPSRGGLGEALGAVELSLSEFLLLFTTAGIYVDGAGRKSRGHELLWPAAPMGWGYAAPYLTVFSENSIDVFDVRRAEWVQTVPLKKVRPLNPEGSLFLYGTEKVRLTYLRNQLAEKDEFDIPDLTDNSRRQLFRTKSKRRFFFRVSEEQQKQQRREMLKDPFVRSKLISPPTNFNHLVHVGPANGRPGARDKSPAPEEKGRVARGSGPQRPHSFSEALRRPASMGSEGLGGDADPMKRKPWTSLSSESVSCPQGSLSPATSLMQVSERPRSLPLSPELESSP

Compound	Kd (TNIK)	Kd (GSK3B)	Kd (CSNK1A1)	Kd (PRKD3)	Kd (CIT)	Kd (CDC42BPG) [nM]	Kd (MERTK) [nM]	PCT_IHB_3D7 (P. falciparum 3D7 cells; P. falciparum 3D7, ref ChEMBL)	pXC50_3D7 (P. falciparum 3D7 cells; P. falciparum 3D7, ref ChEMBL)	PCT_IHB_3D7 (P. falciparum 3D7 cells; [1])	pXC50_3D7 (P. falciparum 3D7 cells; [1])	PCT_IHB_3D7 (P. falciparum 3D7 cells; [2]) [%]	pXC50_3D7 (P. falciparum 3D7 cells; [2])
CN(C)CC(O)COc1ccc(Nc2ncc([N+](=O)[O-])c(Nc3ccccc3O)n2)cc1.O=C(O)C(F)(F)F (stereo not drawn) [TCMDC-141399]	378 nM	3000 nM and 3930 nM	7650 nM	4090 nM and 3410 nM	3750 nM	8140	567	100	6.118				
Cl.NCC1(c2nc(-c3ccc(Cl)c(O)c3)c(-c3ccncc3)[nH]2)CCCCC1 [TCMDC-141154]	134 nM	2750 nM	224 nM and 255 nM	3910 nM	137 nM and 239 nM	6790	4800			98	6.128		
CN1CCN(c2ccc(Nc3ncc(C#N)c(Nc4ccccc4C(N)=O)n3)cc2)CC1.Cl [TCMDC-134116]	92.2 nM and 115 nM	857 nM and 535 nM	742 nM and 1080 nM	166 nM	4860 nM and 4950 nM	848	325					92	7.405
